Results as given in patent publication US20210380547A1, “UREA DERIVATIVES FOR TREATING AND/OR PREVENTING CANCER” (CENTRE NATIONAL DE LA RECHERCHE SCIENTIFIQUE, priority 2018, published 2021).
Like-named read-outs stand apart in the source and are kept apart here.

Columns and labels:
K562 = test: XTT cell viability assay, K562; type: cell-based, human; conditions: XTT assay (48 h), standard deviation of 10%, read-out: EC50 (μM) CML K562
Description: (§1) Fifty microliters of sodium 3′-[1-phenylaminocarbonyl)-3,4-tetrazolium]-bis(4-methoxy-6-nitro) benzene sulfonic acid hydrate (XTT) reagent was added to each well. The assay is based on the cleavage of the yellow tetrazolium salt XTT to form an orange formazan dye by metabolically active cells. The absorbance of the formazan product, reflecting cell viability, was measured at 490 nm. Each assay was performed in quadruplicate.
(§2) Compounds #1-#14 have been assayed as potential anti-proliferative agents against a panel of human breast head and neck, and kidney tumor cells and hematological malignancies, selected on the basis of their aggressiveness (e.g. incurable triple-negative breast cancer cells: MDA-MB-231; kidney ccRCC cells: RCC4, A498 and 786-O and 786R; head and neck cancer cells: CAL33, CAL33RR, CAL27, and CAL27RR; acute myeloid cell lines: OCI-AML2, OCI-AML3, MolM13, and MolM14; myelodysplastic cell line: SM1; and chronic myeloid cell line: CML). All these cell lines share as common denominator the expression of CXCR1 and CXCR2. The EC50 values have been measured by a XTT colorimetric assay, and compared to those of SB-225002, used as a reference; the results are listed in Table 1.

MolM14 = test: XTT cell viability assay, MolM14; type: cell-based, human; conditions: XTT assay (48 h), standard deviation of 10%, read-out: EC50 (μM) AML MolM14
Description: as §1, §2

OCI-AML2 = test: XTT cell viability assay, OCI-AML2; type: cell-based, human; conditions: XTT assay (48 h), standard deviation of 10%, read-out: EC50 (μM) AML OCI-AML2
Description: as §1, §2

SKM1 = test: XTT cell viability assay, SKM1; type: cell-based, human; conditions: XTT assay (48 h), standard deviation of 10%, read-out: EC50 (μM) MDS SKM1
Description: as §1, §2

A498 = test: XTT cell viability assay, A498; type: cell-based, human; conditions: XTT assay (48 h), standard deviation of 10%, read-out: EC50 (μM) Kidney A498
Description: as §1, §2

MolM13 = test: XTT cell viability assay, MolM13; type: cell-based, human; conditions: XTT assay (48 h), standard deviation of 10%, read-out: EC50 (μM) AML MolM13
Description: as §1, §2

786-O = test: XTT cell viability assay, 786-O; type: cell-based, human; conditions: Homo sapiens, 786-0; XTT assay (48 h); standard deviation of 10%; read-out: EC50 (μM) Kidney 786-O
Description: (§3) A, B: Naive (786-O, A), and sunitinib-resistant (786-R, B) 786-O cells, were treated with compound #1 or sunitinib (1 to 10 μM) for 48 hr. Cell viability was measured by XTT assays;
(§4) D, E: 786-O (D), 786-R (E), were treated with 2.5 μM compound #1 or 2.5 μM sunitinib for 24 h to 96 h. The cells metabolism was measured by XTT assay;
as §1, §2

OCI-AML3 = test: XTT cell viability assay, OCI-AML3; type: cell-based, human; conditions: XTT assay (48 h), standard deviation of 10%
Description: as §1, §2

MDA-MB-231 = test: XTT cell viability assay, MDA-MB-231; type: cell-based; conditions: Homo sapiens, XTT assay (48 h), standard deviation of 10%, read-out: EC50 (μM) Breast MDA-MB-231
Description: as §1, §2

RCC4 = test: XTT cell viability assay, RCC4; type: cell-based; conditions: Homo sapiens, XTT assay (48 h), standard deviation of 10%, read-out: EC50 (μM) Kidney RCC4
Description: as §1, §2

CAL33 = test: XTT cell viability assay, CAL33; type: cell-based; conditions: Homo sapiens, CAL-33; XTT assay (48 h); standard deviation of 10%; read-out: EC50 (μM) Head and Neck CAL33
Description: as §1, §2

CAL33RR = test: XTT cell viability assay, CAL33RR; type: cell-based; conditions: Homo sapiens, light or radiation study; XTT assay (48 h); resistant to irradiation and cisplatin; standard deviation of 10%; read-out: EC50 (μM) Head and Neck CAL33RR
Description: as §1, §2

786R = test: XTT cell viability assay, 786R (sunitinib-resistant); type: cell-based, human; conditions: Homo sapiens, 48 h, XTT assay (48 h); sunitinib-resistant; standard deviation of 10%; read-out: EC50 (μM) Kidney 786R
Description: as §3, §4, §1, §2

CAL27 = test: XTT cell viability assay, CAL27; type: cell-based, human; conditions: Homo sapiens, CAL-27, 48 h, XTT assay (48 h); standard deviation of 10%; read-out: EC50 (μM) Head and Neck CAL27
Description: (§5) A, B: Naive (Cal27, A), and cisplatine-resistant (Cal27R, B) Cal27 cells, were treated with compound #1 or cisplatine (1 to 10 μM) for 48 hr. Cell viability was measured by XTT assays;
(§6) C, D: Cal27 (C), cal27R (D), were treated with 2.5 μM compound #1, 2.5 μM cisplatin for 24 h to 96 h. The metabolism of cells was measured by XTT assay.
as §1, §2

CAL27RR = test: XTT cell viability assay, CAL27RR (cisplatin-resistant); type: cell-based, human; conditions: Homo sapiens, light or radiation study; XTT assay (48 h); resistant to irradiation and cisplatin; standard deviation of 10%; read-out: EC50 (μM) Head and Neck CAL27RR
Description: as §5, §6, §1, §2

O=C(Nc1ccc(Cl)cc1)Nc1nc2ccccc2[nH]1 [Compound #6, 1-(1H-benzo[d]imidazol-2-yl)-3-(4-chlorophenyl)urea]
EC50 (K562; Homo sapiens, K562): 12 µM
EC50 (MolM14; Homo sapiens, MOLM-14): 20 µM
EC50 (OCI-AML2; Homo sapiens, OCI-AML2): 20 µM
EC50 (SKM1; Homo sapiens, SKM-1): > 25 µM
EC50 (A498; Homo sapiens, A498): 9 µM
EC50 (MolM13; Homo sapiens, MOLM-13): > 25 µM
EC50 (786-O): 20 µM
EC50 (OCI-AML3; Homo sapiens, OCI-AML-3): 22 µM
EC50 (MDA-MB-231): 20 µM
EC50 (RCC4): 20 µM

O=C(Nc1cccc(Cl)c1)Nc1nc2ccccc2s1 [Compound #8, 1-(benzo[d]thiazol-2-yl)-3-(3-chlorophenyl)urea]
EC50 (K562; Homo sapiens, K562): 25 µM
EC50 (MolM14; Homo sapiens, MOLM-14): > 25 µM
EC50 (OCI-AML2; Homo sapiens, OCI-AML2): > 25 µM
EC50 (SKM1; Homo sapiens, SKM-1): > 25 µM
EC50 (A498; Homo sapiens, A498): > 25 µM
EC50 (MolM13; Homo sapiens, MOLM-13): > 25 µM
EC50 (786-O): > 25 µM
EC50 (OCI-AML3; Homo sapiens, OCI-AML-3): > 25 µM
EC50 (MDA-MB-231): > 25 µM
EC50 (RCC4): 20 µM

O=C(Nc1ccccc1)Nc1nc2ccccc2[nH]1 [Compound #5, 1-(1H-benzo[d]imidazol-2-yl)-3-phenylurea]
EC50 (K562; Homo sapiens, K562): 10 µM
EC50 (MolM14; Homo sapiens, MOLM-14): 20 µM
EC50 (OCI-AML2; Homo sapiens, OCI-AML2): 18 µM
EC50 (SKM1; Homo sapiens, SKM-1): 25 µM
EC50 (A498; Homo sapiens, A498): 10 µM
EC50 (MolM13; Homo sapiens, MOLM-13): 25 µM
EC50 (786-O): 20 µM
EC50 (OCI-AML3; Homo sapiens, OCI-AML-3): 25 µM
EC50 (MDA-MB-231): 12 µM
EC50 (RCC4): 25 µM

Cc1ccc2nc(NC(=O)Nc3ccccc3Cl)sc2c1 [Compound #4, 1-(2-chlorophenyl)-3-(6-methylbenzo[d]thiazol-2-yl)urea]
EC50 (K562; Homo sapiens, K562): 25 µM
EC50 (MolM14; Homo sapiens, MOLM-14): 10 µM
EC50 (OCI-AML2; Homo sapiens, OCI-AML2): > 25 µM
EC50 (SKM1; Homo sapiens, SKM-1): 25 µM
EC50 (A498; Homo sapiens, A498): 15 µM
EC50 (MolM13; Homo sapiens, MOLM-13): 15 µM
EC50 (786-O): 15 µM
EC50 (OCI-AML3; Homo sapiens, OCI-AML-3): 10 µM
EC50 (MDA-MB-231): > 25 µM
EC50 (RCC4): > 25 µM

O=C(Nc1ccc(Cl)cc1)Nc1nc2ccccc2s1 [Compound #9, 1-(benzo[d]thiazol-2-yl)-3-(4-chlorophenyl)urea]
EC50 (K562; Homo sapiens, K562): 25 µM
EC50 (MolM14; Homo sapiens, MOLM-14): > 25 µM
EC50 (OCI-AML2; Homo sapiens, OCI-AML2): > 25 µM
EC50 (SKM1; Homo sapiens, SKM-1): > 25 µM
EC50 (A498; Homo sapiens, A498): 25 µM
EC50 (MolM13; Homo sapiens, MOLM-13): > 25 µM
EC50 (786-O): > 25 µM
EC50 (OCI-AML3; Homo sapiens, OCI-AML-3): > 25 µM
EC50 (MDA-MB-231): > 25 µM
EC50 (RCC4): 20 µM

O=C(Nc1ccccc1)Nc1nc2ccccc2o1 [Compound #5-1, 1-(benzo[d]oxazol-2-yl)-3-phenylurea, reference compound]
EC50 (K562; Homo sapiens, K562): > 25 µM
EC50 (MolM14; Homo sapiens, MOLM-14): > 25 µM
EC50 (OCI-AML2; Homo sapiens, OCI-AML2): > 25 µM
EC50 (SKM1; Homo sapiens, SKM-1): > 25 µM
EC50 (A498; Homo sapiens, A498): > 25 µM
EC50 (MolM13; Homo sapiens, MOLM-13): > 25 µM
EC50 (786-O): > 25 µM
EC50 (OCI-AML3; Homo sapiens, OCI-AML-3): > 25 µM
EC50 (MDA-MB-231): > 25 µM
EC50 (RCC4): > 25 µM

O=C(Nc1nc2ccc([N+](=O)[O-])cc2s1)Nc1ccccc1Br [Compound #13, 1-(2-bromophenyl)-3-(6-nitrobenzo[d]thiazol-2-yl)urea]
EC50 (A498; Homo sapiens, A498): 20 µM
EC50 (CAL33): 8 µM
EC50 (786-O): 15 µM
EC50 (CAL33RR): > 25 µM
EC50 (786R): 14 µM
EC50 (CAL27): > 25 µM
EC50 (RCC4): 25 µM

O=C(Nc1cc(Cl)cc(Cl)c1)Nc1nc2ccc([N+](=O)[O-])cc2s1 [Compound #11, 1-(3,5-dichlorophenyl)-3-(6-nitrobenzo[d]thiazol-2-yl)urea]
EC50 (A498; Homo sapiens, A498): 2.5 µM
EC50 (CAL27RR): 2.5 µM
EC50 (CAL33): 4 µM
EC50 (786-O): 5 µM
EC50 (CAL33RR): 4 µM
EC50 (786R): 5 µM
EC50 (CAL27): 2.5 µM
EC50 (RCC4): 2 µM

O=C(Nc1cccc(Cl)c1)Nc1nc2ccc([N+](=O)[O-])cc2[nH]1 [Compound #14, 1-(3-chlorophenyl)-3-(6-nitro-1H-benzo[d]imidazol-2-yl)urea]
EC50 (A498; Homo sapiens, A498): 5 µM
EC50 (CAL27RR): 10 µM
EC50 (CAL33): 15 µM
EC50 (786-O): 4 µM
EC50 (CAL33RR): 25 µM
EC50 (786R): 4 µM
EC50 (CAL27): 15 µM
EC50 (RCC4): 3 µM

O=C(Nc1ccc([N+](=O)[O-])cc1O)Nc1ccccc1Br [SB-225002, reference compound]
EC50 (K562): > 100 µM
EC50 (MolM14): 90 µM
EC50 (OCI-AML2): > 100 µM
EC50 (SKM1): > 100 µM
EC50 (A498): 70 µM
EC50 (MolM13): > 100 µM
EC50 (OCI-AML3; read-out: EC50 (μM) AML OCI-AML3): 90 µM

COc1ccc(NC(=O)Nc2nc3ccccc3s2)cc1 [Compound #10, 1-(benzo[d]thiazol-2-yl)-3-(4-methoxyphenyl)urea]
EC50 (K562; Homo sapiens, K562): 25 µM
EC50 (MolM14; Homo sapiens, MOLM-14): > 25 µM
EC50 (OCI-AML2; Homo sapiens, OCI-AML2): > 25 µM
EC50 (SKM1; Homo sapiens, SKM-1): > 25 µM
EC50 (A498; Homo sapiens, A498): > 25 µM
EC50 (MolM13; Homo sapiens, MOLM-13): > 25 µM
EC50 (786-O): > 25 µM
EC50 (OCI-AML3; Homo sapiens, OCI-AML-3): > 25 µM
EC50 (MDA-MB-231): > 25 µM
EC50 (RCC4): 15 µM

O=C(Nc1nc2ccccc2s1)Nc1ccccc1Cl [Compound #7, 1-(benzo[d]thiazol-2-yl)-3-(2-chlorophenyl)urea]
EC50 (K562; Homo sapiens, K562): > 25 µM
EC50 (MolM14; Homo sapiens, MOLM-14): > 25 µM
EC50 (OCI-AML2; Homo sapiens, OCI-AML2): 10 µM
EC50 (SKM1; Homo sapiens, SKM-1): > 25 µM
EC50 (A498; Homo sapiens, A498): > 25 µM
EC50 (MolM13; Homo sapiens, MOLM-13): > 25 µM
EC50 (786-O): > 25 µM
EC50 (OCI-AML3; Homo sapiens, OCI-AML-3): > 25 µM
EC50 (MDA-MB-231): > 25 µM
EC50 (RCC4): 25 µM
